Measurements reported in paper PMC6337650 (Molecules, 2018).

Assays:
HCT-116 cells = assay: MTT antiproliferative assay, HCT-116; type: cell-based, human; conditions: Homo sapiens, HCT-116, 48 h, MTT, mean ± SD, n=3; for inhibition at 100 µM: read-out: % Growth Inhibition at 100 μM HCT-116
Procedure: (§1) The antiproliferative activity of the target compounds against a normal L02 cell line and the three different human cancer cell lines viz. colorectal (HCT-116), liver (BEL-7402) and liver (HepG2) were evaluated using a standard MTT-based colorimetric assay. All cell lines were obtained from the Key Laboratory of Natural Resources and Functional Molecules of the Changbai Mountain (Yanbian University, Jilin, China) and maintained in Dulbecco’s modified Eagle’s medium (DMEM) and RPMI Media 1640 (RPMI1640), supplemented with 10% fetal bovine serum (FBS) at 37 °C in a humidified atmosphere containing 5% CO2.
(§2) Cells were plated in 96-well plates at appropriate densities to ensure exponential growth throughout the experimental period (9 × 10^3 cells per well) and then allowed to adhere for 24 h. Cells were then treated for 48 h with four serial concentrations (1, 10, 50 and 100 µM) of each compound. 5-fluorouracil (5-FU) was used as a positive control. After 48 h of incubation, 10 µL of MTT solution was added to each well to a final concentration of 2 mg/mL. Plates were then incubated for a further 4 h. After incubation, the MTT solution was removed and 150 µL of DMSO was added to each well for coloration. The plates were shaken vigorously for 10 min at room temperature to ensure complete solubilization. The optical density (OD) was read on a microplate reader (ELx800, BioTek, Highland Park, Winooski, VT, USA) at a wavelength of 492 nm and the data were subsequently analyzed. The percentage of cell growth inhibition was calculated from the following equation: Inhibitory rate (%) = [(1 − (ODtreated-ODblank)/(ODcontrol-ODblank)] × 100.(1)

L02 cells = assay: MTT assay on normal liver cells L02; type: cell-based; conditions: Homo sapiens, normal liver cells, 48 h, MTT, Table 2, read-out: IC50 Values (μM) L02
Procedure: as §1
as §2, with “5-fluorouracil (5-FU) was used as a positive control.” left out

BEL-7402 cells = assay: MTT antiproliferative assay, BEL-7402; type: cell-based, human; conditions: Homo sapiens, Bel-7402, 48 h, MTT, mean ± SD, n=3; for inhibition at 100 µM: read-out: % Growth Inhibition at 100 μM BEL-7402
Procedure: as §1, §2

HepG2 cells = assay: MTT antiproliferative assay, HepG2; type: cell-based, human; conditions: Homo sapiens, HepG2, 48 h, MTT, mean ± SD, n=3; for inhibition at 100 µM: read-out: % Growth Inhibition at 100 μM HepG2
Procedure: as §1, §2

IC50 (HCT-116 cells)	melting point	IC50 (BEL-7402 cells)	IC50 (HepG2 cells)	SMILES	inhibition at 100 µM (HCT-116 cells)	IC50 (L02 cells)	inhibition at 100 µM (BEL-7402 cells)	inhibition at 100 µM (HepG2 cells)
40.4 ± 0.97 µM	143 to 145 °C	> 100 µM	> 100 µM	COC(=O)[C@@H](NC(=O)[C@]1(C)CCC[C@@]2(C)[C@@H]3CC[C@@]4(C)C[C@]3(CC[C@@H]21)CC4=O)c1ccccc1 [Compound 3a, Methyl(S)-2-phenyl-2-((4R,4aS,6aR,9S,11aR,11bS)-4,9,11b-trimethyl-8-oxotetradecahydro-6a,9-methanocyclohepta[a]naphthalene-4-carboxamido)acetate]	86.26 ± 0.59%	> 100 µM	80 ± 0.95%	75.25 ± 0.56%
22.8 ± 0.81 µM	147 to 148 °C	36.5 ± 0.67 µM	24.4 ± 1.75 µM	COC(=O)C(Cc1ccccc1)NC(=O)C1(C)CCCC2(C)C3CCC4(C)CC3(CCC12)CC4=O [Compound 3b, Methyl((4R,4aS,6aR,9S,11aR,11bS)-4,9,11b-trimethyl-8-oxotetradecahydro-6a,9-methanocyclohepta[a]naphthalene-4-carbonyl)-D-phenylalaninate]	70.8 ± 0.98%	> 100 µM	61.8 ± 0.96%	81.2 ± 2.66%
56.6 ± 1.56 µM	154 to 156 °C	> 100 µM	> 100 µM	C[C@@]12CC[C@@H]3[C@@](CC[C@H]4[C@@]3(C)CCC[C@@]4(C)C(=O)OCC(=O)Nc3ccccc3)(CC1=O)C2 [Compound 4a, 2-oxo-2-(phenylamino)ethyl(4R,4aS,6aR,9S,11aR,11bS)-4,9,11b-trimethyl-8-oxotetradecahydro-6a,9-methanocyclohepta[a]naphthalene-4-carboxylate]	60.4 ± 3.11%	> 100 µM	50.8 ± 2.31%	31.2 ± 1.19%
17.2 ± 0.43 µM	144 to 145 °C	> 100 µM	> 100 µM	C[C@@]12CC[C@@H]3[C@@](CC[C@H]4[C@@]3(C)CCC[C@@]4(C)C(=O)OCC(=O)Nc3cccc(F)c3)(CC1=O)C2 [Compound 4f, 2-((3-fluorophenyl)amino)-2-oxoethyl(4R,4aS,6aR,9S,11aR,11bS)-4,9,11b-trimethyl-8-oxotetradecahydro-6a,9-methanocyclohepta[a]naphthalene-4-carboxylate]	68.7 ± 2.67%	> 100 µM	54.6 ± 3.11%	49.12 ± 0.44%
> 100 µM	189 to 190 °C	12.14 ± 0.12 µM	14.1 ± 0.27 µM	C[C@@]12CC[C@@H]3[C@@](CC[C@H]4[C@@]3(C)CCC[C@@]4(C)C(=O)OCC(=O)Nc3ccc([N+](=O)[O-])cc3)(CC1=O)C2 [Compound 4h, 2-((4-nitrophenyl)amino)-2-oxoethyl(4R,4aS,6aR,9S,11aR,11bS)-4,9,11b-trimethyl-8-oxotetradecahydro-6a,9-methanocyclohepta[a]naphthalene-4-carboxylate]	55.4 ± 2.55%	> 100 µM	71.4 ± 2.36%	76.5 ± 1%
14.6 ± 0.51 µM	83 to 84 °C	27.1 ± 0.87 µM	9.87 ± 0.13 µM	C[C@@]12CC[C@@H]3[C@@](CC[C@H]4[C@@]3(C)CCC[C@@]4(C)C(=O)OCC(=O)NCc3cn(-c4ccccc4)nn3)(CC1=O)C2 [Compound 5a, 2-oxo-2-(((1-phenyl-1H-1,2,3-triazol-4-yl)methyl)amino)ethyl(4R,4aS,6aR,9S,11aR,11bS)-4,9,11b-trimethyl-8-oxotetradecahydro-6a,9-methanocyclohepta[a]naphthalene-4-carboxylate]	81.9 ± 2.55%	> 100 µM	90 ± 1.92%	87 ± 1.06%
7.44 ± 0.37 µM	80 to 82 °C	22.5 ± 0.58 µM	11.7 ± 0.23 µM	C[C@@]12CC[C@@H]3[C@@](CC[C@H]4[C@@]3(C)CCC[C@@]4(C)C(=O)OCC(=O)NCc3cn(-c4ccc(Cl)cc4)nn3)(CC1=O)C2 [Compound 5b, 2-(((1-(4-chlorophenyl)-1H-1,2,3-triazol-4-yl)methyl)amino)-2-oxoethyl(4R,4aS,6aR,9S,11aR,11bS)-4,9,11b-trimethyl-8-oxotetradecahydro-6a,9-methanocyclohepta[a]naphthalene-4-carboxylate]	85.6 ± 1.34%	> 100 µM	90.5 ± 1.04%	82.1 ± 1.82%
14.4 ± 1.31 µM	71 to 72 °C	> 100 µM	12.3 ± 0.77 µM	COc1ccc(-n2cc(CNC(=O)COC(=O)[C@]3(C)CCC[C@@]4(C)[C@@H]5CC[C@@]6(C)C[C@]5(CC[C@@H]43)CC6=O)nn2)cc1 [Compound 5c, 2-(((1-(4-methoxyphenyl)-1H-1,2,3-triazol-4-yl)methyl)amino)-2-oxoethyl(4R,4aS,6aR,9S,11aR,11bS)-4,9,11b-trimethyl-8-oxotetradecahydro-6a,9-methanocyclohepta[a]naphthalene-4-carboxylate]	84.6 ± 1.55%	> 100 µM	75.6 ± 1.76%	82.8 ± 2.02%

The remaining lines, values behind:

SMILES	IC50 (HCT-116 cells)	melting point	IC50 (BEL-7402 cells)	IC50 (HepG2 cells)	inhibition at 100 µM (HCT-116 cells)	IC50 (L02 cells)	inhibition at 100 µM (BEL-7402 cells)	inhibition at 100 µM (HepG2 cells)
CN(C)CCNC(=O)[C@]1(C)CCC[C@@]2(C)[C@@H]3CC[C@@]4(C)C[C@]3(CC[C@@H]21)CC4=O [Compound 1b, (4R,4aS,6aR,9S,11aR,11bS)-N-(2-(dimethylamino)ethyl)-4,9,11b-trimethyl-8-oxotetradecahydro-6a,9-methanocyclohepta[a]naphthalene-4-carboxamide]	24 ± 1.2 µM	102 to 103 °C	> 100 µM	> 100 µM	76.6 ± 1.78%	> 100 µM	88.5 ± 2.02%	57 ± 2.35%
CCN1CCN(C(=O)COC(=O)[C@]2(C)CCC[C@@]3(C)[C@@H]4CC[C@@]5(C)C[C@]4(CC[C@@H]32)CC5=O)CC1 [Compound 2b, 2-(4-ethylpiperazin-1-yl)-2-oxoethyl(4R,4aS,6aR,9S,11aR,11bS)-4,9,11b-trimethyl-8-oxotetradecahydro-6a,9-methanocyclohepta[a]naphthalene-4-carboxylate]	30.7 ± 1.98 µM	115 to 117 °C	> 100 µM	> 100 µM	60.4 ± 1.69%	> 100 µM	64.4 ± 1.66%	< 10%
C[C@@]12CC[C@@H]3[C@@](CC[C@H]4[C@@]3(C)CCC[C@@]4(C)C(=O)OCC(=O)N3CCN(Cc4ccccc4)CC3)(CC1=O)C2 [Compound 2d, 2-(4-benzylpiperazin-1-yl)-2-oxoethyl(4R,4aS,6aR,9S,11aR,11bS)-4,9,11b-trimethyl-8-oxotetradecahydro-6a,9-methanocyclohepta[a]naphthalene-4-carboxylate]	18.2 ± 1.26 µM	149 to 150 °C	53 ± 1.97 µM	11.1 ± 0.55 µM	75.4 ± 1.06%	> 100 µM	70.9 ± 1.05%	70.6 ± 0.89%
C[C@@]12CC[C@@H]3[C@@](CC[C@H]4[C@@]3(C)CCC[C@@]4(C)C(=O)OCC(=O)N3CCCCCC3)(CC1=O)C2 [Compound 2e, 2-(azepan-1-yl)-2-oxoethyl(4R,4aS,6aR,9S,11aR,11bS)-4,9,11b-trimethyl-8-oxotetradecahydro-6a,9-methanocyclohepta[a]naphthalene-4-carboxylate]	> 100 µM	110 to 112 °C	13.2 ± 0.32 µM	20.5 ± 0.46 µM	85.6 ± 0.96%	> 100 µM	64.9 ± 1.01%	50.4 ± 0.57%
C[C@@]12CC[C@@H]3[C@@](CC[C@H]4[C@@]3(C)CCC[C@@]4(C)C(=O)O)(CC1=O)C2 [Isosteviol, isosteviol, reference compound]	> 100 µM		> 100 µM	> 100 µM	34.1 ± 1.89%	> 100 µM	28 ± 1.79%	11.8 ± 0.88%
